The values that follow come from PMC8894198, “Biosynthetic Microcin J25 Exerts Strong Antibacterial, Anti-Inflammatory Activities, Low Cytotoxicity Without Increasing Drug-Resistance to Bacteria Target” (Frontiers in Immunology, 2022).

Where a SMILES comes first, the peptide text is derived from it. Bridges are numbered along the chain shown (N, C = ends).

Assay [1] concerns E. coli O111:B4 LPS-challenged BALB/c mice. Description: LPS-challenged mice experiment (septicemia model). The assay is classed as in vivo. As for the experimental part:
Female BALB/c mice (5-6 weeks) was provided by HFK Bioscience Co. (Beijing, China). All mice were raised in laminar flow cabinets and housed individually in a room with strictly controlled temperature and humidity, where a 12-hour light and 12-hour dark cycle was implemented, and mice had free access to food and water throughout the experimental period.
E. coli O111:B4 LPS (Sigma-Aldrich) at a concentration of 15 mg/L was injected into the peritoneal cavity of female BALB/c mice (age 7 weeks, weight 15 ± 0.5 g), and approximately 30 min after the challenge of E. coli O111:B4 LPS, MccJ25 was orally gavaged to the mice at a concentration of 4.55 or 9.1 mg per kg body weight (BW). The concentrations of MccJ25 were selected based on our previous study ([24]). Mice were followed for 72 h to test the survival rate of mice that were later sacrificed. However, for LPS treated mice, when the lifespan of the mice was around 50%, the mice were sacrificed. The serum from mice were obtained. The lung, liver, spleen, jejunum, and ileum were harvested, kept in liquid nitrogen immediately, stored at -80°C until analysis. For histopathological assessment, tissues and organs were fixed using 4% paraformaldehyde, hematoxylin eosin (H&E) was applied to examine the histological and pathological changes according to the standard protocol as described previously ([24]).
In the LPS-challenged mice experiment, lifespan of mice was monitored for 72 h. In the cocktail of MDR E. coli strains infection experiment, BW change, rectal temperature, diarrhea scores and fecal image, or survival rate were measured. For the diarrhea score evaluation producer was referred to previous study ([24]).
The concentrations of tumor necrosis factor-α (TNF-α), interleukin-6 (IL-6), IL-4, interferon (IFN)-γ, and nitric oxide (NO) in serum were measured. In addition, TNF-α and NO levels were also measured in the supernatant of RAW264.7 cells. ELISA was performed using a commercial ELISA kit (eBioscience, San Diego, USA). LPS levels in plasma were analyzed using the QCL-1000 kit (Xiamen, China) based on the manufacturer’s standards. On the day of sacrifice, eyes were extracted with ethylenediaminetetraacetic acid (EDTA), and blood was collected into clean test tubes. Peripheral hemograms and white blood cells (WBCs) were analyzed using a Coulter LH755 hematology analyzer. The levels of serum D-lactate were measured using ELISA kit (Jiancheng, Nanjing, China) according to the manufacturer’s protocols.
The extent and mRNA expression levels of TNF-α, IL-6, IL-10, IL-1β, IFN-γ, and TLR4, and NF-κB in each body part of the jejunum, ileum, colon, and spleen and in RAW264.7 cells were clarified by RT–PCR as previously described ([31]). Primers for TNF-α, IL-6, IL-10, IL-1β, IFN-γ, TLR4, and NF-κB are described in Table S1 . The specific assay steps were as follows: total RNA was extracted from the jejunum, ileum, spleen, and cells by TRIzol reagent (Invitrogen, Carlsbad, CA). Combined with gel electrophoresis and a NanoDrop 2000 spectrophotometer (Thermo Fisher Scientific, Wilmington, DE), the quality and quantity of total RNA were determined. […] Then the 2^-ΔΔCt method was used for the next step of analysis.
Frozen tissue samples and fresh cells were homogenized in RIPA lysis buffer containing protease inhibitors (Applygen, Beijing, China). Protein levels were determined using a BCA protein assay kit (Thermo Fisher Scientific, Rockford, IL). Thirty micrograms of tissue and cell protein samples were electrophoresed on SDS polyacrylamide gels and electrotransferred to PVDF membranes (Millipore). […]

In the next assay the test system is E. coli K88. Description: Electron microscopy (SEM, TEM) of treated bacteria. Format: cell-based. Here is the method:
Scanning electron microscope (SEM) was performed to test the morphological features of E. coli K88 cells by comparing cells incubated in the absence (control) or presence of MccJ25. For SEM sample preparation, the standard protocol was used based on our previous report ([26]) with slight modifications. Overnight E. coli K88 cultures were inoculated and grown to the mid-logarithmic phase in the fresh LB medium at 37°C for 2 h, then harvested by centrifugation, washed twice with PBS and re-suspended in the same buffer. Approximately 2 × 10^7 cells were incubated with 1 and 2 × MIC MccJ25 at 37°C for 1 h. Thereafter, cells were pooled and centrifuged at 5000 g for 5 min. Bacterial pellets were washed 3 times with PBS and centrifuged after each wash. Cells were fixed with 2.5% glutaraldehyde at 4°C overnight and washed 2 times with PBS. They were then harvested, post-fixed with 1% osmium tetroxide for 1 h and dehydrated for 15 min each in a graded ethanol series (50, 70, 80, 90, 95 and 100%). Cells were then treated with absolute acetone for 20 min, a mixture of alcohol and iso-amyl acetate (1:1) for 30 min and pure iso-amyl acetate for 1 h. Lastly, samples were dehydrated in a critical point dryer (Model HCP-2, Hitachi, Chiyoda-ku, Tokyo, Japan) with liquid CO2. The dehydrated samples were coated with gold-palladium and observed by SEM (Model EVO MA10 XVP, Carl Zeiss, Jena, GmbH, Germany). […]

In assay [2] the test system is E. coli O111:B4 LPS-challenged BALB/c mice. The experiment in a line: LPS-challenged mice experiment (septicemia model). The assay is classed as in vivo. The note with it: LPS 15 mg/kg i.p.; MccJ25 4.55 and 9.1 mg/kg BW; followed 72 h.

For `CC[C@H](C)[C@H](NC(=O)CNC(=O)[C@@H](NC(=O)[C@H](Cc1ccccc1)NC(=O)[C@H](Cc1ccc(O)cc1)NC(=O)[C@@H]1CCC(=O)NCC(=O)NCC(=O)N[C@@H](C)C(=O)NCC(=O)N[C@@H](Cc2c[nH]cn2)C(=O)N[C@@H](C(C)C)C(=O)N2CCC[C@H]2C(=O)N1)C(C)C)C(=O)NCC(=O)N[C@H](C(=O)N1CCC[C@H]1C(=O)N[C@H](C(=O)N[C@@H](CO)C(=O)N[C@@H](Cc1ccccc1)C(=O)N[C@@H](Cc1ccc(O)cc1)C(=O)NCC(=O)O)[C@@H](C)CC)[C@@H](C)O` [MccJ25, microcin J25] (GGAGHVPEYFVGIGTPISFYG-OH; lactam N-8 (inferred); C-terminus assumed), the “jejunum and ileum histopathology” value in assay [1] (4.55 mg/kg BW) is “moderate villus damage and epithelial cell sloughing”; in assay [1] (9.1 mg/kg BW, compared with the control group) it was “few changes in the villi, crypts and intestinal mucosa”. Also, the “serum levels of TNF-α, IL-6 and NO” value in assay [1] (ELISA, after LPS treatment) is “showed a decreasing trend”. The lung histopathology result in assay [1] (H&E) was “partially reverse swelling and lung damage”. Further, the “liver and spleen histopathology” value in assay [1] (H&E, MccJ25 30 min after LPS) is “substantially reduced the degree of edema and degradation of cytoplasmic proteins”. Further, the WBC count result in assay [1] (different concentrations of MccJ25 vs LPS group) is on record as “significantly reduce the counts of leukocytes”. In addition, the “TNF-α, TLR4 and IL-6 mRNA expression” value in assay [1] (ileum, colon, or spleen, q-PCR) is recorded as “significantly decreased”. The “plasma LPS concentrations” value in assay [1] (vs mice treated with LPS only) is reported as “significantly decreased”. In addition, the “phosphorylated NF-κB, p38 MAPK and IκB protein expression” value in assay [1] (western blot, vs LPS-infected group) is on record as “significantly decreased”. The “cell morphology by SEM” value in the assay on E. coli K88 (1 × and 2 × MIC, 60 min) is “filamentous and elongated”. For the same compound, in the assay on E. coli K88 (1 ×, 2 × and 4 × MIC, 0.5 and 1 h), the “cell membranes by TEM” value is recorded as “disrupted”. In assay [2], the survival rate entry is on record as “increased”.
